Values after ≈ are worked out from the molar mass of the structure shown. Active and inactive are the calls of the source. No cut-off for these calls is given here.
What was measured:
[1] = Plasma concentration in BALB/c mouse at 10 mg/kg, po at 1 hr; assay type: ADME, organism-based; design: dose 10 mg/kg, route oral
[2] = molecular target: T1, Serine/threonine-protein kinase Chk1 (Homo sapiens, UniProt O14757)
T1 sequence (O14757 whole entry): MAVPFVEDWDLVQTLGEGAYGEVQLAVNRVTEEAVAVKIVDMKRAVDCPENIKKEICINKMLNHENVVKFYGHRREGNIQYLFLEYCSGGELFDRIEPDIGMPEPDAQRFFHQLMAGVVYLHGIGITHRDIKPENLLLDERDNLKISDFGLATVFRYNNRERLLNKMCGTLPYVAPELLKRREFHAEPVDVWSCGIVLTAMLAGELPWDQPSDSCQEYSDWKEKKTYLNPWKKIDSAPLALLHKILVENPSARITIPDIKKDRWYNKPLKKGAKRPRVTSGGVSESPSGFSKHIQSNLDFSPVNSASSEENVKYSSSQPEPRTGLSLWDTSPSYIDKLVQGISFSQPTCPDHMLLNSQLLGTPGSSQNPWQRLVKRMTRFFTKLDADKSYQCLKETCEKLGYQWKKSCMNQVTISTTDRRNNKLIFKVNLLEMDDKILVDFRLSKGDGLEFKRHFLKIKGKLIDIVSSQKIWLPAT

[3] = Plasma concentration in BALB/c mouse at 10 mg/kg, po at 6 hrs; assay type: ADME, organism-based; design: dose 10 mg/kg, route oral
[4] = in vitro; details: mouse, liver microsomes
[5] = molecular target: Voltage-gated inwardly rectifying potassium channel KCNH2 (Homo sapiens, UniProt Q12809)
Chain of Voltage-gated inwardly rectifying potassium channel KCNH2 (Q12809 whole entry): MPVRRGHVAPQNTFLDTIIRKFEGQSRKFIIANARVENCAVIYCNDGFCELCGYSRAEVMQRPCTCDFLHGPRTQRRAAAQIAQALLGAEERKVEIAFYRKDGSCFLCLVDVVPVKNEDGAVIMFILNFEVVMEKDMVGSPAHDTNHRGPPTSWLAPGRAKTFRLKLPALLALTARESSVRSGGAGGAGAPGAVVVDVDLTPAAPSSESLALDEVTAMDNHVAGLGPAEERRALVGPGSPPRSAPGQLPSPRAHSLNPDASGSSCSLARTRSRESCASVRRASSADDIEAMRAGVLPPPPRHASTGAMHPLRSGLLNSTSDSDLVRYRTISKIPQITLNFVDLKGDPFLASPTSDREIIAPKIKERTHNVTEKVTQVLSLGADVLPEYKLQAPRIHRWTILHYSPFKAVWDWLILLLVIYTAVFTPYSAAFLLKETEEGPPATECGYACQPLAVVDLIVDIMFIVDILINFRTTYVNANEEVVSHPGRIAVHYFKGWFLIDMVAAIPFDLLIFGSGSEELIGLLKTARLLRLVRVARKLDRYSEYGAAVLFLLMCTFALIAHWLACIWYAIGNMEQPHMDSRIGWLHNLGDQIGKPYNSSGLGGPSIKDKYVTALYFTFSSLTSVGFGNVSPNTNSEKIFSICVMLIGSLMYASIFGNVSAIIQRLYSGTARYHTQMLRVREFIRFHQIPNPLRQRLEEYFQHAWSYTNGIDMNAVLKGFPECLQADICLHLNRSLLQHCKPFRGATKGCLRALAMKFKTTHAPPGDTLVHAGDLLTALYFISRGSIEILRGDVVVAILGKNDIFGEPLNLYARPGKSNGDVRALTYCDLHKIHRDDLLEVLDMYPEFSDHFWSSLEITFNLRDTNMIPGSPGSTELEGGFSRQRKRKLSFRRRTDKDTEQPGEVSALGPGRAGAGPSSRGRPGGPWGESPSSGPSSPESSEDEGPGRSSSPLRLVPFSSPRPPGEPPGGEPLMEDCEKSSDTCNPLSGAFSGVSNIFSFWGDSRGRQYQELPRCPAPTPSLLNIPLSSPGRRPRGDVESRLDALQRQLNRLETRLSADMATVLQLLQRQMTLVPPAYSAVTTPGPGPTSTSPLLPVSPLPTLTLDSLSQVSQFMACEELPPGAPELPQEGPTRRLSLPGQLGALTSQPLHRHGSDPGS

[6] = Plasma concentration in BALB/c mouse at 10 mg/kg, iv at 1 hr administered as bolus dose; assay type: ADME, organism-based; design: dose 10 mg/kg, route intravenous
[7] = Plasma concentration in BALB/c mouse at 10 mg/kg, iv at 6 hrs administered as bolus dose; assay type: ADME, organism-based; design: dose 10 mg/kg, route intravenous
[8] = molecular target: T2, hERG (KCNH2) (Homo sapiens, UniProt Q12809); experiment: Inhibition of human ERG overexpressed in HEK cells at 11 uM; assay type: cell-based, HEK293; details: HEK cells overexpressing human ERG
T2 sequence (Q12809 whole entry): as above

[9] = test system: Mus musculus; experiment: Clearance in BALB/c mouse at 10 mg/kg, iv and po; assay type: ADME, organism-based; design: dose 10 mg/kg, route oral; details: in vivo
[10] = test system: Mus musculus; experiment: Inhibition of CHK1 autophosphorylation in human SW620 cells xenografted in athymic nude mouse at 300 mg/kg, po measured at 6 hrs by Western blot analysis in presence of gemcitabine; assay type: functional, organism-based; design: dose 300 mg/kg; details: SW-620
[11] = molecular target: Serine/threonine-protein kinase BRSK1 (Homo sapiens) (UniProt Q8TDC3); experiment: Inhibition of human BRSK1 at 1 uM by radiometric assay in presence of ATP
Chain of Serine/threonine-protein kinase BRSK1 (Homo sapiens) (Q8TDC3 whole entry): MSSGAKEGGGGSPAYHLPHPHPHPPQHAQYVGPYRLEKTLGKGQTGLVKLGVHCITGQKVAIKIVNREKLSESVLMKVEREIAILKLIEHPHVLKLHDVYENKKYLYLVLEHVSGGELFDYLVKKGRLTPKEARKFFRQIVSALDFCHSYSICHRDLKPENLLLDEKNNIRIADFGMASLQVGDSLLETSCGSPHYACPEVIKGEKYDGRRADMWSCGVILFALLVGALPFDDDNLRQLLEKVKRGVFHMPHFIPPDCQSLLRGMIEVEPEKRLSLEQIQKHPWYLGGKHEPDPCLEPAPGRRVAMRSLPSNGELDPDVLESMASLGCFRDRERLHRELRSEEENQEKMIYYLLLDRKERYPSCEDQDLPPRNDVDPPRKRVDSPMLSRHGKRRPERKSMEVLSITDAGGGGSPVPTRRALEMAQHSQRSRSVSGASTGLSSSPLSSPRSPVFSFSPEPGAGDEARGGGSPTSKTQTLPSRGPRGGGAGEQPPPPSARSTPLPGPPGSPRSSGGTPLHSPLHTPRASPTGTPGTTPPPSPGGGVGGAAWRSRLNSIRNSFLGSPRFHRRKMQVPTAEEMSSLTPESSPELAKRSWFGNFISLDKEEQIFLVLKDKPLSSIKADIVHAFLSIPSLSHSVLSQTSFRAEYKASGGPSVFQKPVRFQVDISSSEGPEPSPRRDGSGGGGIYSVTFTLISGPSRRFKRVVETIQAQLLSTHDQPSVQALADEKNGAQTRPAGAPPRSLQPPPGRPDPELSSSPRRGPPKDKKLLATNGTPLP

[12] = molecular target: Ribosomal protein S6 kinase alpha-3 (Homo sapiens) (UniProt P51812); experiment: Inhibition of human RSK2 at 1 uM by radiometric assay in presence of ATP
[13] = Thermodynamic solubility of the compound in water; assay type: physicochemical
[14] = test system: Mus musculus; experiment: Inhibition of CHK1 in human SW620 cells xenografted in athymic nude mouse at 300 mg/kg, po measured at 12 hrs by Western blot analysis in presence of gemcitabine; assay type: functional, organism-based; design: dose 300 mg/kg; details: SW-620
[15] = molecular target: Interleukin-1 receptor-associated kinase 1 (Homo sapiens) (UniProt P51617); experiment: Inhibition of human IRAK1 at 1 uM by radiometric assay in presence of ATP
[16] = molecular target: Cyclin-dependent kinase 1 (Homo sapiens, UniProt P06493)
Chain of Cyclin-dependent kinase 1 (P06493 whole entry): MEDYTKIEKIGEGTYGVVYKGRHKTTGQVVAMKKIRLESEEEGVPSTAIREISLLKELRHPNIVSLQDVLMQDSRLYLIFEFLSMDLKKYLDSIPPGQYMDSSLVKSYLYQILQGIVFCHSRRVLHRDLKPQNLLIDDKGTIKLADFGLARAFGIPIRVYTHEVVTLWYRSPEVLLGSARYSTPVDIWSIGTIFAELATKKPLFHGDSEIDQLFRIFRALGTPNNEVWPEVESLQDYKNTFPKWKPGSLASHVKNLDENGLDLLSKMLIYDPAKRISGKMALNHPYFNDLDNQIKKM

[17] = test system: Mus musculus; experiment: Oral bioavailability in BALB/c mouse at 10 mg/kg; assay type: ADME, organism-based; details: in vivo
[18] = test system: Mus musculus; experiment: Toxicity in athymic mouse xenografted with human HT-29 cells assessed as body weight loss at 75 mg/kg, po tid for 7 days; assay type: organism-based; design: dose 75 mg/kg, route oral; details: in vivo, 168 h
[19] = molecular target: KCNQ1/MINK (IKs) (Homo sapiens, UniProt P15382+P51787); experiment: Inhibition of human KCNQ1/MINK at 10 uM; assay type: protein-complex assay
Chain of KCNQ1/MINK (IKs) (P51787 whole entry): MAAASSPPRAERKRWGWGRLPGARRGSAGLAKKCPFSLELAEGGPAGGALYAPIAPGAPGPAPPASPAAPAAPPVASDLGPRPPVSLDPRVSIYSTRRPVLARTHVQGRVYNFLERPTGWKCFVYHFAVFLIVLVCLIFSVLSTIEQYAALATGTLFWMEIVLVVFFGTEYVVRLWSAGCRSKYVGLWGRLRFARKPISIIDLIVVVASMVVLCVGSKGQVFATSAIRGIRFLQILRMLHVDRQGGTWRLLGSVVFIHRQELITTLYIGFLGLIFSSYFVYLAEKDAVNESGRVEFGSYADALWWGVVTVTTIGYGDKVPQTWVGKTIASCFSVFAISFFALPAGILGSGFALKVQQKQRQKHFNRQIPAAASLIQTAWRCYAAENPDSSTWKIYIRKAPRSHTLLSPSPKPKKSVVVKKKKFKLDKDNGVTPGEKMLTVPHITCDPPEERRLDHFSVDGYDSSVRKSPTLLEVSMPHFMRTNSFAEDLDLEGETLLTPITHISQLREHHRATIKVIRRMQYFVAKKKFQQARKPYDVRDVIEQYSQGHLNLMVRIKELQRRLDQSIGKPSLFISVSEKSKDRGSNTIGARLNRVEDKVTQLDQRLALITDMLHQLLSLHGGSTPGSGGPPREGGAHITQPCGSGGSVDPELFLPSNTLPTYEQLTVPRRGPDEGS

[20] = molecular target: High affinity nerve growth factor receptor (Homo sapiens) (UniProt P04629); experiment: Inhibition of human TRKA at 1 uM by radiometric assay in presence of ATP
Chain of High affinity nerve growth factor receptor (Homo sapiens) (P04629 33-796 limits assumed): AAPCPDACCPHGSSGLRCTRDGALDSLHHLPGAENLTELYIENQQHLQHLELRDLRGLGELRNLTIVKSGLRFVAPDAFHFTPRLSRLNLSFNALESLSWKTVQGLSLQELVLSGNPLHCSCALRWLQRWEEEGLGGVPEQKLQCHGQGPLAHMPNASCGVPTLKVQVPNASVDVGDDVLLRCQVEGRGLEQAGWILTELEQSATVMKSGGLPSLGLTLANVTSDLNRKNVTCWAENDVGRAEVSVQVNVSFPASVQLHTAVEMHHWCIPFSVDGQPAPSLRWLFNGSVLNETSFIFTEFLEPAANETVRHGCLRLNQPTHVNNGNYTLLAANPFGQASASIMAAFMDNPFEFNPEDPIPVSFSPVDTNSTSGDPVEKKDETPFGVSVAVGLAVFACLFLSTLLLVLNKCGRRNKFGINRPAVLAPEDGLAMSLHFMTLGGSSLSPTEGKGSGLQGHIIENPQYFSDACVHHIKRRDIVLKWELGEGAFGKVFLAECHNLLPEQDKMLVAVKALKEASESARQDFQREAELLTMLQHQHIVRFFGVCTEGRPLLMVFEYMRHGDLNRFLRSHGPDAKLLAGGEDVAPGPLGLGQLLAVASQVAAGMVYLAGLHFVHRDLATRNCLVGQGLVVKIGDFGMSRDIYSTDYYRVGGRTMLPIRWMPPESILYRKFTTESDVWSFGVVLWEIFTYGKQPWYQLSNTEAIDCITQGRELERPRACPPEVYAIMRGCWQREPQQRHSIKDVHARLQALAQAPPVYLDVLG

[21] = molecular target: Cav1.2 (Homo sapiens, UniProt Q13936); experiment: Inhibition of human Cav1.2 at 10 uM
[22] = molecular target: Potassium voltage-gated channel subfamily A member 5 (Homo sapiens) (UniProt P22460); experiment: Inhibition of human Kv1.5 at 10 uM
[23] = test system: Caco-2; details: human
Description: Permeability across apical to basolateral side in human Caco2 cells

[24] = molecular target: AMP-activated protein kinase, AMPK (Homo sapiens) (UniProt P54646+O43741+P54619+Q9UGJ0+Q9Y478+Q13131+Q9UGI9); experiment: Inhibition of human AMPK at 1 uM by radiometric assay in presence of ATP; assay type: protein-complex assay
[25] = molecular target: Serine/threonine-protein kinase Chk2 (Homo sapiens, UniProt O96017)
[26] = molecular target: Ribosomal protein S6 kinase alpha-1 (Homo sapiens) (UniProt Q15418); experiment: Inhibition of human RSK1 at 1 uM by radiometric assay in presence of ATP
[27] = molecular target: Potassium/sodium hyperpolarization-activated cyclic nucleotide-gated channel 4 (Homo sapiens) (UniProt Q9Y3Q4); experiment: Inhibition of human HCN4 at 10 uM
[28] = test system: Mus musculus; experiment: Volume of distribution at steady state in BALB/c mouse at 10 mg/kg, iv and po; assay type: ADME, organism-based; design: dose 10 mg/kg, route oral; details: in vivo
[29] = test system: Plasma; experiment: Plasma protein binding in human; assay type: ADME, cell-free
[30] = molecular target: Kir2.1 (Homo sapiens, UniProt P63252); experiment: Inhibition of human Kir2.1 at 10 uM
[31] = molecular target: Nav1.5 (Homo sapiens, UniProt Q14524); experiment: Inhibition of human Nav1.5 at 10 uM
[32] = Drug uptake in human SW620 cells xenografted in athymic nude mouse at 300 mg/kg, po measured at 6 to 12 hrs in presence of gemcitabine; assay type: ADME, organism-based, SW-620; design: dose 300 mg/kg, route oral; details: in vivo
[33] = test system: Mus musculus; experiment: Toxicity in athymic mouse xenografted with human Calu6 cells assessed as body weight loss at 75 mg/kg, po tid for 7 days; assay type: organism-based, Calu-6; design: dose 75 mg/kg, route oral; details: in vivo, 168 h
[34] = molecular target: Kv4.3/KchIP2 (Homo sapiens, UniProt Q9NS61+Q9UK17); experiment: Inhibition of human Kv4.3/KchIP2 at 10 uM; assay type: protein-complex assay
[35] = test system: Mus musculus; experiment: Toxicity in athymic mouse xenografted with human SW620 cells assessed as body weight loss at 75 mg/kg, po tid for 4 days; assay type: organism-based, SW-620; design: dose 75 mg/kg, route oral; details: in vivo, 96 h
[36] = Aqueous solubility in phosphate buffer at pH 6.5; assay type: physicochemical
[37] = Toxicity in po dosed mouse; assay type: organism-based; details: in vivo
[38] = molecular target: T2, hERG (KCNH2); experiment: Inhibition of human ERG overexpressed in HEK cells at 10 uM; assay type: cell-based, HEK293; details: HEK cells overexpressing human ERG
[39] = test system: HT-29; experiment: Antitumor activity against human HT-29 cells xenografted in athymic mouse assessed as tumor growth delay at 12.5 mg/kg, ip tid for 7 days (reference value: 6.9 1.5); assay type: functional; details: route intraperitoneal
[40] = test system: Mus musculus; experiment: Toxicity in athymic mouse xenografted with human HT-29 cells assessed as body weight loss at 12.5 mg/kg, ip tid for 7 days; assay type: organism-based; design: dose 12.5 mg/kg, route intraperitoneal; details: in vivo, 168 h

Compound: CNc1cc(Nc2cnc(C#N)c(O[C@H](C)CN(C)C)n2)ncc1C1CC1
- concentration at 1 h [1]: 80 nM
- IC50 [2]: 0.026 µM
- concentration at 6 h [3]: 8 nM
- metabolised at 0.5 h [4]: 42%
- IC50 [5]: 6 µM
- concentration at 1 h [6]: 417 nM
- concentration at 6 h [7]: 29 nM

Compound: COC(=O)c1cnc(Nc2cnc(C#N)c(O[C@@H]3CCNC3)n2)cc1OC
- IC50 [2]: 0.0465 µM
- inhibition at 11 µM [8]: 44%

Compound: COc1cc(Nc2cnc(C#N)c(O[C@H](C)CN(C)C)n2)ncc1-c1cnn(C)c1
- clearance [9]: 0.125 L/h
- inhibition [10]: Active
- inhibition [11]: > 80%
- concentration at 1 h [1]: 1120 nM
- IC50 [2]: 0.0077 µM
- inhibition [12]: > 80%
- Therm_solubility [13]: 70 µg/mL
- inhibition [14]: Active
- inhibition [15]: > 80%
- IC50 [16]: > 10 µM
- F [17]: 61%
- concentration at 6 h [3]: 52 nM
- Activity [18]: Non-toxic
- inhibition at 10 µM [19]: < 25%
- inhibition [20]: > 80%
- metabolised at 0.5 h [4]: 38%
- inhibition at 10 µM [21]: < 25%
- inhibition [22]: < 25%
- permeability [23]: 29 ×10⁻⁶ cm/s
- inhibition [24]: > 80%
- IC50 [25]: > 10 µM
- inhibition [26]: > 80%
- inhibition [27]: < 25%
- Vdss [28]: 0.113 L
- PPB [29]: 82%
- inhibition at 10 µM [30]: < 25%
- IC50 [5]: 5 µM
- inhibition at 10 µM [31]: < 25%
- Drug uptake [32]: Active
- Activity [33]: Non-toxic
- inhibition at 10 µM [34]: < 25%
- Activity [35]: Non-toxic
- concentration at 1 h [6]: 1850 nM
- concentration at 6 h [7]: 27 nM
- solubility thermodynamic [36]: 6200 µg/mL (≈ 15.2 mM)
- MTD [37]: > 300 mg/kg

Compound: CSc1cc(Nc2cnc(C#N)c(O[C@H](C)CN(C)C)n2)ncc1-c1cnn(C)c1
- IC50 [2]: 0.027 µM
- IC50 [5]: 8 µM

Compound: CNc1cc(Nc2cnc(C#N)c(O[C@H](C)CN(C)C)n2)ncc1C#CC(C)(C)O
- IC50 [2]: 0.0029 µM
- inhibition at 10 µM [38]: 59%

Compound: COC(=O)c1cnc(Nc2cnc(C#N)c(O[C@@H]3CCNC3)n2)cc1SC
- IC50 [2]: 0.018 µM
- inhibition at 10 µM [38]: 25%

Compound: CCc1c2c(nc3ccc(OC(=O)N4CCC(N5CCCCC5)CC4)cc13)-c1cc3c(c(=O)n1C2)COC(=O)[C@]3(O)CC [IRINOTECAN]
- Time [39]: 6.4 days
- Activity [40]: Non-toxic

Compound: CNc1cc(Nc2cnc(C#N)c(O[C@H]3CCN(C)C3)n2)ncc1-c1cnn(C)c1
- concentration at 1 h [1]: 18 nM
- IC50 [2]: 0.0034 µM
- concentration at 6 h [3]: 4 nM
- metabolised at 0.5 h [4]: 19%
- concentration at 1 h [6]: 147 nM
- concentration at 6 h [7]: 8 nM

Compound: C[C@H](CN(C)C)Oc1nc(Nc2cc3cccc(Cl)c3cn2)cnc1C#N
- IC50 [5]: 5 µM

Compound: COc1cc(Nc2cnc(C#N)c(O[C@@H]3CCN(C)C3)n2)ncc1-c1cnn(C)c1
- concentration at 1 h [1]: 264 nM
- IC50 [2]: 0.0063 µM
- concentration at 6 h [3]: 6 nM
- metabolised at 0.5 h [4]: 18%
- IC50 [5]: 16 µM
- concentration at 1 h [6]: 1180 nM
- concentration at 6 h [7]: 7 nM

Compound: CNc1cc(Nc2cnc(C#N)c(O[C@H](C)CN(C)C)n2)ncc1Cl
- IC50 [2]: 0.02 µM
- IC50 [5]: 1 µM
